From publication PMC5054363 (Scientific Reports, 2016)
“Also recorded” adds a separate entry of the source. *1 amine or outer side, *2 acyl side, *3 side chain or, on linkers, in order; H or OH if unused. Where a SMILES comes first, the peptide text is derived from it. Bridges are numbered along the chain shown (N, C = ends). [ ]: non-standard residue; d: D form. The star is where a group is joined. X1 = CC[C@H](C)[C@@H](N[*:1])[C@@H](O)CC(=O)O[C@H](C(=O)[C@H](C)C(=O)[*:2])C(C)C; NMeY = CN[C@@H](Cc1ccc(O)cc1)C(=O)O; dNMeL = CN[C@H](CC(C)C)C(=O)O; Pyruvoyl = CC(=O)C(=O)*

Columns and labels:
[1] = test system: HGC27 gastric carcinoma cells; experiment: Cell growth inhibition (MTT, 72 h), HGC27; format: cell-based; conditions: parental HGC27, 72 h
Procedure: (§5) HeLa cervix adenocarcinoma (ATCC CCL-2), K-562 chronic myelogenous leukemia (ATCC CCL-243), NCI-H460 lung cancer (ATCC HTB-177) and HGC27 gastric cancer (ATCC CRL-2506) cells were obtained from ATCC (Manassas, VA, USA) and cultured following standard procedures. Viability assays were performed utilizing 3-(4,5-dimethylthiazol-2-yl)-2,5-diphenyltetrazolium bromide (MTT) according to methods described elsewhere[46].

[2] = test system: JNK and p38 MAPK, oxidative stress in tumor cells; conditions: cited from earlier work
Source text: (§1) Plitidepsin (Aplidin) is a cyclic depsipeptide originally isolated from the marine tunicate Aplidium albicans. […] Plitidpesin has recently completed a pivotal phase III clinical trial for multiple myeloma (clinicaltrials.gov identifier: NCT01102426) that has shown a statistically significant 35% reduction in the risk of progression or death over the comparator (p = 0.0054). This study has met its primary endpoint. In tumor cells, the compound induces a potent oxidative stres ...

[3] = test system: multiple myeloma patients; conditions: phase III, p = 0.0054, ref clinicaltrials.gov NCT01102426; cited from earlier work
Source text: as §1

[4] = two different COMPARE analyses, no reference given; cited from earlier work
Source text: as §1

[5] = test system: HeLa-APL-R cells stably transfected with eEF1A2-GFP; experiment: Antiproliferative activity in HeLa-APL-R stably transfected with eEF1A2-GFP; format: cell-based, human; conditions: 72 h, MTT
Procedure: (§2) (A) HeLa and HeLa-APL-R cells were stably transfected with an expression vector encoding for eEF1A2-GFP fusion protein. Clones homogeneously expressing the GFP were selected. The levels of expression of eEF1A2 were analyzed by Western blot using specific antibodies. The position of the endogenous and the GFP-fusion proteins are indicated. […] Levels of expression attained after transfection were similar to the endogenous levels. […] Concentration-response curves were performed at 72 h. Cell growth was determined by the MTT method and expressed as percentage of control cell survival.
(§3) For transfection and selection of cell clones, HeLa and HeLa-APL-R cells were seeded in 24 well plates at 40% confluence and allowed to stand for 24 hours at 37 °C and 5% CO2. Before transfection, the culture medium was changed to Opti-MEM (Life Technologies, Carlsbad, CA, USA). Plasmids encoding eEF1A2-GFP were incubated with Lipofectamine (Life Technologies, Carlsbad, CA, USA) under the recommendations of the manufacturer and added to the cell medium. After 24 h incubation at 37 °C and 5% CO2, the culture medium was replaced by the standard DMEM supplemented with 2 mg/ml of G-418 for the selection of clones expressing the exogenous gene. Clones were further selected following the expression of the GFP-fused protein through fluorescence microscopy.

[6] = test system: NCI-H460-APL-R non-small cell lung cancer cells (plitidepsin-resistant); experiment: Cell growth inhibition (MTT, 72 h), NCI-H460-APL-R; format: cell-based; conditions: highest concentration tested 100 nM
[7] = test system: NCI-H460 non-small cell lung cancer cells; experiment: Cell growth inhibition (MTT, 72 h), NCI-H460; format: cell-based; conditions: parental NCI-H460, 72 h
Procedure: as §5

[8] = test system: K-562 chronic myelogenous leukemia cells; experiment: Cell growth inhibition (72 h), K-562; format: cell-based; conditions: K-562, 72 h
[9] = molecular target: T1, eEF1A2 purified from rabbit muscle (Oryctolagus cuniculus, UniProt Q71V39); conditions: saturation binding, Swillens fit
Procedure: (§4) (A) Saturation binding curve. Protein and radioligand were incubated for 1 h at room temperature and samples were processed as described in the text. […] The experiment was performed as described in the text, and the experimental points were fitted to a single exponential decay equation by non-linear regression. […] Extracts were then digested with the indicated concentrations of subtilisin for 30 min at room temperature. Samples were resolved by SDS-PAGE and the degradation of eEF1A2 analyzed by Western blot; quantitation of the bands from the DARTS assay was performed with the ImageJ software.

[10] = test system: p38, ERK and JNK phosphorylation in HeLa-APL-R cells expressing eEF1A2-GFP; experiment: Signaling (Western blot) in HeLa-APL-R expressing eEF1A2-GFP; format: cell-based, human; conditions: plitidepsin 450 nM
Procedure: as §2, §3

[11] = test system: HeLa cells ectopically overexpressing eEF1A2-GFP; experiment: Antiproliferative activity in HeLa overexpressing eEF1A2-GFP; format: cell-based, human; conditions: HeLa overexpressing eEF1A2-GFP (Supplementary Figure 1)
Procedure: as §3
LEGENDS TO SUPPL EMENTARY FI GURES
HeLa and HeLa-APL -R cells.
autofluorescence AF (grey).
GFP at different concentrations identified in the phasor plot.
Supplementary Figure 3. FRET efficiency estimation from FRET “Dn” and FRET
of incubation with 10 nM plitidepsin- DMAC. Clusters of phasors corresponding to the […]

[12] = molecular target: T1, eEF1A2 purified from rabbit muscle; experiment: biochemical
Procedure: as §4
At the selected times after this last addition, 400 μL of each sample were withdrawn and processed as above.

[13] = test system: three tumor cell lines selected for resistance to plitidepsin
Procedure: In all cases eEF1A2 protein levels were analyzed by Western Blot as shown in the right hand side of each graph. ● wild type cells, ○ APL-R cells.
HeLa cervix adenocarcinoma (ATCC CCL-2), K-562 chronic myelogenous leukemia (ATCC CCL-243), NCI-H460 lung cancer (ATCC HTB-177) and HGC27 gastric cancer (ATCC CRL-2506) cells were obtained from ATCC (Manassas, VA, USA) and cultured following standard procedures. Viability assays were performed utilizing 3-(4,5-dimethylthiazol-2-yl)-2,5-diphenyltetrazolium bromide (MTT) according to methods described elsewhere.

[14] = test system: human haploid cells with eEF1A2 knock-out; conditions: CRISPR/CAS9, versus parental cells, data not shown, results not conclusive
[15] = test system: signaling events in HeLa-APL-R cells; conditions: HeLa-APL-R versus parental HeLa; cited from earlier work
Source text: In contrast, HeLa cells ectop ...

[16] = test system: signaling in HeLa cells overexpressing eEF1A2-GFP; experiment: Signaling (Western blot) in HeLa overexpressing eEF1A2-GFP; format: cell-based, human; conditions: plitidepsin 450 nM
Procedure: as §2, §3

T1 sequence (Q71V39 whole entry): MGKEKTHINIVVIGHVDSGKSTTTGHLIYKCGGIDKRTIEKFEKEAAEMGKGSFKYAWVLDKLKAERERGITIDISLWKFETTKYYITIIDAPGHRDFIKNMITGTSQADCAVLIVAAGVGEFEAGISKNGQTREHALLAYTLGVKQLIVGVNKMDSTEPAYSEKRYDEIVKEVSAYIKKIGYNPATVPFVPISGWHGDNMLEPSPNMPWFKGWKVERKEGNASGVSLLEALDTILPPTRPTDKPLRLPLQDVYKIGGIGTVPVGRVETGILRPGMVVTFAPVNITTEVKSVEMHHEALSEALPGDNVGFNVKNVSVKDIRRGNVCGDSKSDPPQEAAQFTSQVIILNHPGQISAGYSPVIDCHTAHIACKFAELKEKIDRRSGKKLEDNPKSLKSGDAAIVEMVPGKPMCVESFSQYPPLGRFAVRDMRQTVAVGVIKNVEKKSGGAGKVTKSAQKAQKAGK

CC[C@H](C)[C@H]1NC(=O)[C@@H](NC(=O)[C@@H](CC(C)C)N(C)C(=O)[C@@H]2CCCN2C(=O)C(C)=O)[C@@H](C)OC(=O)[C@H](Cc2ccc(OC)cc2)N(C)C(=O)[C@@H]2CCCN2C(=O)[C@H](CC(C)C)NC(=O)[C@@H](C)C(=O)[C@H](C(C)C)OC(=O)C[C@@H]1O [plitidepsin, Plitidepsin] (Pyruvoyl-P[dNMeL]T[X1]LP[NMeY](Me); ester 3-C (inferred))
IC50 [1]: 0.9 nM | activation of JNK and p38 [2]: rapid and sustained activation | oxidative stress [2]: potent oxidative stress | reduction in the risk of progression or death over the comparator [3]: 35% | similarity with other antitumor agents [4]: no similarity with any other antitumor agent | sensitivity to plitidepsin after ectopic expression of eEF1A2 [5]: partially recovered sensitivity; also recorded: restored the sensitivity | effect on cell growth [6]: did not cause any effect on cell growth | IC50 [7]: 0.2 nM | IC50 [8]: 9.35 nM | Kd ([9]; [14C]-plitidepsin 0.1 to 4 μM, 100 nM rabbit eEF1A2, 1 μM Gpp(NH)p, pH 7.5, 5% DMSO, 1 h, room temperature, filtration, triplicate): 79 ± 30 nM | Bmax ([9]; [14C]-plitidepsin, 1 h, room temperature): 0.7 mol per mol of protein | alpha (ratio between non-specifically bound ligand and free ligand) ([9]; [14C]-plitidepsin): 0.014 ± 0.0005 | phosphorylation of p38, ERK and JNK [10]: led to phosphorylation of p38, ERK and JNK | additional sensitization to the drug [11]: did not show any additional sensitization | koff ([12]; read-out: kOFF (first-order rate constant of dissociation)): 0.0019 ± 8e-07 s⁻¹ | residence time ([12]; read-out: target residence time, from dissociation kinetics (kOFF), rabbit eEF1A2): 8.8 min | fold resistance to plitidepsin versus parental cells [13]: at least 100 fold | resistance of eEF1A2 knock-out cells to plitidepsin [14]: increased resistance | signaling events triggered by plitidepsin [15]: completely lost | alteration in the signaling elicited by plitidepsin [16]: did not show any alteration in the signaling
